Test: Population pharmacokinetics (PopPK) modeling
Parameters: species or system human
Settings: after sc Risperidone formulation
Source text: The general procedures that were followed for PopPK model development are outlined below: • 1. Exploratory data analysis • 2. Base structural model development • 3. Evaluation of covariate effects • 4. Model refinement • 5. Model evaluation
This was a one compartment model, with a first order and transit compartment absorption routes and a first-order elimination.
Predicted risperidone concentration from the parent model was used as input into the metabolite central compartment.
Finally, model estimated parent and metabolite levels were used to calculate TAM exposure, which was used for PK evaluation and simulations as well as for exposure-response evaluation of safety and efficacy.

Cc1nc2n(c(=O)c1CCN1CCC(c3noc4cc(F)ccc34)CC1)CCCC2O (stereo not shown) [9-OH-risperidone, 9-hydroxy-risperidone]
final PopPK model estimate for clearance (CL): 5.78 L/h
